Converted amounts (≈) assume the structure as drawn. Like-named read-outs stand apart in the source and are kept apart here.
How the values were obtained:
[1] = tested on: marine bacteria strain S1; assay: disc inhibition assay, strain S1; assay type: cell-based, Rhodovulum iodosum; conditions: strain 1, 50 μg of compound per disc
Procedure, shortened: (§1)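 Zone-of-inhibition diameters (caliper, n=2 averaged) were recorded after overnight dark incubation at 35° C. Test discs of 6 mm bore 50 μg compound delivered in DMSO, placed on lawns of the marine strain grown in marine broth and spread on Marine Agar; solvent discs served as controls.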

[2] = tested on: marine bacteria strain S3; assay: disc inhibition assay, strain S3; assay type: cell-based, Erythrobacter aquimaris; conditions: for zone of inhibition at 50 µg/disc: Qipengyuania aquimaris, S3, 24 h
Procedure, shortened: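 Disc inhibition assay against a marine bacterial strain isolated from fouling communities in Singapore coastal waters. The strain was grown in marine broth and swabbed over Marine Agar plates as a lawn. 6 mm sterile discs loaded with compound in DMSO, or DMSO controls, were placed on the plates and incubated overnight in the dark at 35° C.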

[3] = tested on: marine bacteria strain S4; assay: disc inhibition assay, strain S4; assay type: cell-based, Bacillus algicola; conditions: for zone of inhibition: strain 4, 50 μg of compound per disc
Procedure, shortened: as §1

[4] = tested on: marine bacteria strain S9; assay: disc inhibition assay, strain S9; assay type: cell-based, Bacillus algicola; conditions: for zone of inhibition at 50 µg/disc: Guptibacillus algicola, S9, 24 h
Procedure, shortened: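 50 μg compound/6 mm disc (from 2 mg/ml DMSO stock); DMSO blank disc control. Lawn swabbed on Marine Agar from marine broth culture. Overnight, 35° C, dark. Readout: inhibition zone diameter (calipers), mean of 2 replicates.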

[5] = tested on: marine bacteria strain S10; assay: disc inhibition assay, strain S10; assay type: cell-based, Halobacillus trueperi; conditions: for zone of inhibition: strain 10, 50 μg of compound per disc
Procedure, shortened: as §1

[6] = tested on: marine bacteria strain S14; assay: disc inhibition assay, strain S14; assay type: cell-based, Vibrio probioticus; conditions: strain 14, 50 μg of compound per disc
[7] = tested on: marine bacteria strain S16; assay: disc inhibition assay, strain S16; assay type: cell-based, Pseudoalteromonas piscicida; conditions: strain 16, 50 μg of compound per disc
Procedure, shortened: as §1

[8] = tested on: marine bacteria strain S17; assay: disc inhibition assay, strain S17; assay type: cell-based, Gordonia terrae; conditions: for zone of inhibition: strain 17, 50 μg of compound per disc
Procedure, shortened: as §1

[9] = tested on: marine bacteria strain S18; assay: disc inhibition assay, strain S18; assay type: cell-based, Microbacterium esteraromaticum; conditions: for zone of inhibition: strain 18, 50 μg of compound per disc
[10] = tested on: marine bacteria strain S27; assay: disc inhibition assay, strain S27; assay type: cell-based, Tenacibaculum lutimaris; conditions: for zone of inhibition at 50 µg/disc: Tenacibaculum lutimaris, S27, 24 h
Procedure, shortened: as §1

[11] = tested on: marine bacteria strain S28; assay: disc inhibition assay, strain S28; assay type: cell-based, Arthrobacter protophormial; conditions: for zone of inhibition: strain 28, 50 μg of compound per disc
Procedure, shortened: as §1

[12] = tested on: marine bacteria strain S29; assay: disc inhibition assay, strain S29; assay type: cell-based, Bacillus hwajinpoensis; conditions: for zone of inhibition at 50 µg/disc: Guptibacillus hwajinpoensis, S29, 24 h
Procedure, shortened: as §1

[13] = tested on: marine bacteria strain S30; assay: disc inhibition assay, strain S30; assay type: cell-based, Bacillus borophilicus; conditions: for zone of inhibition: strain 30, 50 μg of compound per disc
Procedure, shortened: as §1

[14] = tested on: Stage II nauplii of Balanus amphitrite; assay: barnacle toxicity assay; assay type: in vivo; conditions: Table 3(a); concentration that caused 50% mortality, 22 to 24 hours, Stage II nauplii
Procedure: (§2) Pure compounds were suspended in DMSO and sonicated to obtain a stock solution of 50 mg ml^−1 in DMSO. This stock solution is stored at −20° C. in 4 ml amber screw cap vials. For the bioassays, a small volume of stock solution was added to 1 μm filtered seawater in a glass scintillation vial. This suspension was then sonicated around 10 minutes. Serial dilutions were generated to the required range of concentrations. Serial dilution of the equivalent amounts of DMSO in seawater was used as the control.
(§3) The barnacle bioassay method used follows from the method first introduced by Rittschof et al. (1992), and subsequently by other authors (Willemsen et al., 1998). This method is now standard practice for many antifouling screening of novel compounds.
Toxicity assays were modified from Rittschof et al. (1992). Stage II naupliar larvae used in tests were obtained from Balanus amphitrite adults collected from inter-tidal rock walls at Kranji mangrove, Singapore. Larvae were collected from a container of adults by attraction to a point source of light and transferred to 500 ml of fresh seawater. Next, larvae were re-concentrated with a fiber optic light and added to assays.
Duplicate assays were conducted in 2 ml glass vials (La Pha Pack® PN 11-14-0544) in 1 ml of filtered seawater for 22 to 24 hours. The assays were repeated for confirmation. There were two sets of controls, a blank control consisting of 3 tubes of seawater only, and DMSO control consisting of the equivalent dilution series with DMSO without compound). For the compounds, there were 3 tubes of each for each test concentration. The assay was initiated by addition of barnacle naupliar in 50 μl of seawater. After 22 to 24 hours of incubation at 25-27° C. solutions containing test animals were transferred to a Bogorov tray and scored as living or dead. Moribund larvae were scored as dead. Results were confirmed by repeating the assay. Data were combined and the concentration that caused 50% mortality (LD50) was calculated by probit analysis using a basic computer program (Libermann, 1983). If data were not appropriate for probit analysis, the LD50 was estimated from graphed data.

[15] = tested on: cyprids of Balanus amphitrite; assay: barnacle settlement assay; assay type: in vivo; conditions: Amphibalanus amphitrite, 24 h, concentration that caused 50% settlement inhibition, 24 hours, cyprids
Procedure: as §2, §3
Barnacle settlement assays were based on methodology from Rittschof et al. (1992). Barnacle larvae from field-collected adults were reared on an algal mixture of 1:1 v/v of Tetraselmis suecica and Chaetoceros muelleri at 25° C., at approximately 5×10^5 cells per ml density. On this regime, larvae metamorphose to cyprids in 5 days. These cyprids were aged at 4° C. for 2-3 days, and 45-70% settlement after 24 hours (Willemsen et al., 1998).
Settlement tests were conducted in 7 ml neutral glass vials (Samco® T1 03N1) 34 mm by 23 mm diameter, with 20-40 cyprids per well. Test solutions were made up to twice the required final concentration. 0.5 ml of test solution was added into each well, and cyprids were transferred into each well in 0.5 ml of seawater. Assays were done in triplicate. As before, there were two sets of controls, a blank control consisting 3 tubes of seawater only, and DMSO control consisting of the equivalent dilution series with DMSO without compound. After 24 hours, larvae that had attached and metamorphosed were enumerated and the result expressed as percentage settlement. Larvae not attached were scored as not settled. The assays were repeated and the concentration that caused 50% settlement inhibition (ED50) was determined by pro bit analysis using a basic computer program (Lieberman, 1983), or by estimation from graphed data.

[16] = Table 3(a), read-out: ED50 (the source's name)

Row | Structure (SMILES) | zone of inhibition [1] | zone of inhibition [3] | zone of inhibition [5] | zone of inhibition [6] | zone of inhibition [8] | zone of inhibition [9] | zone of inhibition [11] | zone of inhibition [13] | LD50 [14] | IC50 [15, 16] | zone of inhibition [7] | further results
1 | O=C(Cc1ccccc1)N1CCC(O)(c2ccccc2)CC1 [Compound 10.4] | − | − | − | − | − | − | − | − | > 50 µg/mL | 15 µg/mL (≈ 50.8 µM) |  | zone of inhibition at 50 µg/disc ([2]; strain 3, 50 μg of compound per disc, read-out: zone of inhibition): 2 to 5 mm; zone of inhibition at 50 µg/disc ([4]; strain 9, 50 μg of compound per disc, read-out: zone of inhibition): 2 to 5 mm; zone of inhibition at 50 µg/disc ([7]; Pseudoalteromonas piscicida, S16, 24 h, read-out: zone of inhibition): 2 to 5 mm; zone of inhibition at 50 µg/disc ([10]; strain 27, 50 μg of compound per disc, read-out: zone of inhibition): 2 to 5 mm; zone of inhibition ([12]; strain 29, 50 μg of compound per disc): −
2 | CCCCC(CCCC)C(=O)N(C)C [Compound 12.3] | − | − | − | − | − | − | − | − | > 50 µg/mL | 2.76 µg/mL (≈ 13.8 µM) | − | zone of inhibition ([2]; strain 3, 50 μg of compound per disc): −; zone of inhibition ([4]; strain 9, 50 μg of compound per disc): −; zone of inhibition ([10]; strain 27, 50 μg of compound per disc): −; zone of inhibition at 50 µg/disc ([12]; strain 29, 50 μg of compound per disc, read-out: zone of inhibition): 2 to 5 mm
3 | CN(C)C(=O)C(CCN1CCC(O)(c2ccc(Cl)cc2)CC1)(c1ccccc1)c1ccccc1 [LOP, loperamide, reference compound] | − |  |  | − |  |  |  |  | 1.56 µg/mL |  | − | zone of inhibition at 50 µg/disc [2]: > 10 mm; zone of inhibition at 50 µg/disc ([3]; Guptibacillus algicola, S4, 24 h): 5 to 10 mm; zone of inhibition at 50 µg/disc [4]: 5 to 10 mm; zone of inhibition at 50 µg/disc ([5]; Halobacillus trueperi, S10, 24 h): 5 to 10 mm; zone of inhibition at 50 µg/disc ([8]; Gordonia terrae, S17, 24 h): 5 to 10 mm; zone of inhibition at 50 µg/disc ([9]; Microbacterium esteraromaticum, S18, 24 h): > 10 mm; zone of inhibition at 50 µg/disc [10]: 5 to 10 mm; zone of inhibition at 50 µg/disc ([11]; Arthrobacter, S28, 24 h): 5 to 10 mm; zone of inhibition at 50 µg/disc [12]: 5 to 10 mm; zone of inhibition at 50 µg/disc ([13]; Bacillus, S30, 24 h): 2 to 5 mm; IC50 ([15]; read-out: ED50, Table 3(a)): 0.37 µg/mL (≈ 0.776 µM)

Reference: patent publication US20160311788A1, “Antifouling Compounds And Use Thereof” (National University of Singapore, priority 2008, published 2016)
